Measurements as given in PubChem BioAssay (NCI).
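Values below derive from 48-hour exposures of cells grown in 96-well plates, with endpoints linearly interpolated between the two concentrations bracketing the appropriate inhibition level. GI50 = concentration required for 50% inhibition of growth. TGI marks complete inhibition of growth.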

Experiments:
Test in all cases: NCI tumour cell line growth inhibition, 48 h
NCI-H23 lung = tested on: NCI-H23 lung
NCI-H226 lung = tested on: NCI-H226 lung
HCT-116 colon = tested on: HCT-116 colon
SF-295 CNS = tested on: SF-295 CNS
NCI-H460 lung = tested on: NCI-H460 lung
OVCAR-4 ovarian = tested on: OVCAR-4 ovarian
OVCAR-3 ovarian = tested on: OVCAR-3 ovarian
NCI-H522 lung = tested on: NCI-H522 lung

SMILES | TGI (NCI-H23 lung) [µM] | TGI (NCI-H226 lung) [µM] | TGI (HCT-116 colon) [µM] | TGI (SF-295 CNS) [µM] | TGI (NCI-H460 lung) [µM] | TGI (OVCAR-4 ovarian) [µM] | TGI (OVCAR-3 ovarian) [µM] | TGI (NCI-H522 lung) [µM] | GI50 (NCI-H23 lung) [µM] | GI50 (NCI-H226 lung) [µM] | GI50 (SF-295 CNS) [µM] | GI50 (NCI-H460 lung) [µM] | GI50 (OVCAR-4 ovarian) [µM]
COc1ccc(/C=C2\C(=O)N(NC(C)=O)c3ccccc32)cc1 | > 100 | > 100 | > 100 | > 100 | > 100 | > 100 | > 100 |  |  |  |  |  | 
COc1ccc2c(C(=O)O)cc3ccccc3c2c1OC | 48 | 71.9 | 32.6 | > 100 |  |  | 32.7 | 26.8 |  |  |  |  | 
O=[N+]([O-])c1ccc(-c2ccc(C3=Nn4c(CNc5ccccc5Cl)nnc4SC3)o2)cc1 | > 100 | > 100 | > 100 | > 100 | > 100 |  | > 100 | > 100 |  |  |  |  | 
O=C(NCCc1ccccc1)C1C(=O)C(=O)N(CCc2ccccc2)C1=O (stereo not drawn) | > 100 | > 100 | > 100 | > 100 |  |  | > 100 | > 100 |  |  |  |  | 
c1ccc(C(c2ccccc2)c2ccccn2)cc1 | > 100 | > 100 | > 100 | > 100 | > 100 | > 100 | > 100 |  |  |  |  |  | 
CCOC(=O)C1=C(NC)OCC1=O | > 100 | > 100 | > 100 | > 100 | > 100 | > 100 | > 100 | > 100 |  |  |  |  | 
COc1cc(/C=C2\NC(=O)C(Cc3cc(OC)c(OC)c(C)c3OC)N(C(C)=O)C2=O)c(OC)c(C)c1OC (stereo not drawn) | > 100 | > 100 | > 100 | > 100 | > 100 | > 100 | > 100 | 79.2 |  |  |  |  | 
O=NN(CCCl)C(=O)NC1CCC(CC(=O)O)CC1 (stereo not drawn) | > 100 | > 100 | > 100 | > 100 | > 100 | > 100 | > 100 | > 100 |  |  |  |  | 
O=C1C2C3C=CC(C2C(=O)N1CO)C1C2C(=O)N(CO)C(=O)C2C31 (stereo not drawn) | > 100 | > 100 | > 59.8 | > 100 | > 54.5 | > 64.7 | > 100 | > 100 |  |  |  |  | 
CC(=O)[CH-]C(=O)c1ccccc1.[C-]#[O+].[C-]#[O+].[Ir] | > 100 | > 100 |  | > 100 | > 10 | > 100 |  |  | > 100 | > 100 | > 100 | > 10 | > 100
O=C1N[C@@H]2CCCC[C@@H]2C12CCCCC2 | > 100 | > 100 | > 100 | > 100 | > 100 | > 100 | > 100 |  |  |  |  |  | 
CC(=O)Nc1ccc(C2CC(c3ccc([N+](=O)[O-])cc3)=Nc3ccccc3S2=O)cc1 (stereo not drawn) | 53.9 | 64.5 |  | 93.2 | 47.9 | 39.8 | 54.7 | 34.7 |  |  |  |  | 
O=C1NC(=O)C2C(=O)NC(=O)C1C2Cc1ccco1 (stereo not drawn) | > 100 | > 100 |  | > 100 | > 100 | > 100 | > 100 | > 100 |  |  |  |  | 
CC1NOC(=O)C1N=Nc1ccc(Cl)cc1Cl (stereo not drawn) | 64.2 | 63.4 | 52.5 | 68.6 | 59.5 | 56.5 | 36.9 | 35.1 |  |  |  |  | 
CCOC(=O)c1ccc(N=Nc2ccc(N(CCC#N)CCC#N)cc2C)cc1 | > 100 | > 100 |  | > 100 |  | > 100 | > 100 | > 100 |  |  |  |  | 
COC(=O)C1=C(C(=O)OC)C2(c3ccccc3)OC1(c1ccccc1)c1cc3ccccc3cc12 | 4.48 |  |  | 19.8 | 11.9 | 3.5 | 2.68 |  |  |  |  |  | 
COc1ccc2nc(NC(=O)C(=O)CC(=O)c3ccc([N+](=O)[O-])cc3)sc2c1 | > 100 | > 100 | > 100 |  | > 100 | > 100 | > 100 | > 100 |  |  |  |  | 
OC(c1ccccc1Br)(c1ccccc1Br)C(F)(F)F | 78.3 | 26.5 | 39.4 | 38.9 | > 100 | > 100 | 51.7 | 26.1 |  |  |  |  | 
CCOC(=O)C1(C)CCC(C(C(=O)O)C(=O)O)CC1=O (stereo not drawn) |  | > 100 | > 100 | > 100 | > 100 | > 100 | > 100 | > 100 |  |  |  |  | 
N#CC1CC(c2ccccc2)Nc2cc(Cl)ccc2N1 (stereo not drawn) | > 83.7 | > 100 | > 100 | > 100 | > 100 | > 100 | 57.1 | 21.7 |  |  |  |  | 
N#Cc1ccc(Sc2nc3ccccc3[nH]2)cc1 | > 100 | > 100 |  | > 100 | > 100 | > 100 |  | > 100 |  |  |  |  | 
Nc1nc(=S)c2c(ncn2CCO)[nH]1 |  | > 100 | > 100 | > 100 | > 100 | > 100 | > 100 | > 100 |  |  |  |  | 
